Experimental data: patent US5605929A, “Methods and compositions for inhibiting 5α-reductase activity” (priority 1995, dated 1997)
Where two headings read alike, the source gives them in different places.

Tests used:
[1] = target: T1, human 5α-reductase isozyme type 2 (Homo sapiens, UniProt P31213); assay: 4-[14C]testosterone reduction, human type 2 isozyme; assay type: biochemical; conditions: for activity on type 2 isozyme: enzymatic assay, concentrations below 30 μM for ECG/EGCG; for inhibition at 1 µM / inhibition at 3 µM / inhibition at 10 µM / inhibition at 30 µM / inhibition at 100 µM: read-out: % Inhibition of 5α-reduction
T1 construct: expressed in transfected cells; host or cells: Rat-1A cells infected with pMV7 retrovirus; microsomes of these cells
T1 sequence (P31213 1-254): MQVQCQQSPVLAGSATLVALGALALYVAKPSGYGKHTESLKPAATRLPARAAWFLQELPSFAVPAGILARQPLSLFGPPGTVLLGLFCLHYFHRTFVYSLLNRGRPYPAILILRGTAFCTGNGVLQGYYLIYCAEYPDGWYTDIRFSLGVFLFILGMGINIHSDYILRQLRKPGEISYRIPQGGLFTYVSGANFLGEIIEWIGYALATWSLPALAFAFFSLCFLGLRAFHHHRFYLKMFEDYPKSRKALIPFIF
Description: (§1) The cDNAs for the human type 1 and 2 5α-reductases were isolated from human prostate λZAP II™ cDNA libraries using the published sequence of the 5α-reductases, PCR™ and standard library screening techniques (Sambrook et al., 1989). The type 1 and 2 cDNAs correspond to nucleotides 31-870 and 28-829, respectively, of the published sequences for these 5α-reductases (Anderson and Russell, 1990; Anderson et al., 1991). The type 1 and 2 cDNAs were subcloned into the retroviral expression vector pMV7 (Kirschmeier et al., 1988) and high titer stocks of virus containing the type 1 and 2 cDNAs were generated using the packaging cells BOSC 23 293 (Kirschmeier et al., 1988). Rat.-1A cells (Pear et al., 1993) were infected with virus (Topp, 1981) and cells containing integrated retrovirus were selected for G418-SO4 resistance, (Brown and Scott, 1987).
(§2) Microsomes were prepared as described previously (Liang and Liao, 1992) from the liver of adult Sprague-Dawley female rats or Rat-1A cells expressing a specific type of human 5α-reductase. […] The data presented was based on the rate of reaction.
(§3) The reaction was started by the addition of 25 μl of microsomes (25 μg protein). The mixture was incubated at 37° for 30-60 min and stopped by addition of 0.5 ml of ethyl acetate and mixing for 1 min. The organic solvent extract was removed under vacuum.

[2] = test system: androgen-dependent organs; assay type: in vivo, rat; conditions: up to 15 mg per day
Experimental: The control rats were injected with 0.3 ml of 30% ethanol.

[3] = target: T2, human 5α-reductase isozyme type 1 (Homo sapiens, UniProt P18405); assay: [3H]4-MA binding, human type 1 isozyme expressed in Rat-1A cells; conditions: read-out: % Inhibition of [^3 H]4-MA binding
T2 construct: expressed in transfected cells; host or cells: Rat-1A cells infected with pMV7 retrovirus; microsomes of these cells
T2 sequence (P18405 1-259): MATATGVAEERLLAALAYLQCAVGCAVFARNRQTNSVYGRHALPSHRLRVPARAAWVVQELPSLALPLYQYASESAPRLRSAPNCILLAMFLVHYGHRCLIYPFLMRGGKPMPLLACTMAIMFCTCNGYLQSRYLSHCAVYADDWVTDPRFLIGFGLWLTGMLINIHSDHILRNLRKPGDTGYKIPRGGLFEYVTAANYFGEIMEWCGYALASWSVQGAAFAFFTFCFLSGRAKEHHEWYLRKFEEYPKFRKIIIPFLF
Description: as §1, §2
(§4) [^3 H]4-MA binding assay were described in detail previously (Liang and Liao, 1992; Liang et al., 1983). […] The reaction was started by the addition of 25 μl of microsomes (25 μg protein). After 30-60 min incubation at 0° C., the [^3 H]4-MA bound to microsomes was collected on a Whatman GF/F glass fiber, washed and radioactivity determined (Liang and Liao, 1992).

[4] = target: T1, human 5α-reductase isozyme type 2; assay: [3H]4-MA binding, human type 2 isozyme expressed in Rat-1A cells; conditions: read-out: % Inhibition of [^3 H]4-MA binding
Description: as §1, §2, §4

[5] = target: Soybean lipoxygenase (Glycine max, UniProt P08170); conditions: cited from earlier work
[6] = target: T2, human 5α-reductase isozyme type 1; assay: 4-[14C]testosterone reduction, human type 1 isozyme; assay type: biochemical; conditions: for activity on type 1 isozyme: enzymatic assay; for inhibition at 1 µM / inhibition at 3 µM / inhibition at 10 µM / inhibition at 30 µM: read-out: % Inhibition of 5α-reduction
Description: as §1, §2, §3

[7] = target: T3, 5α-Reductase of Rat Liver Microsomes (Rattus norvegicus, UniProt P24008); assay: [3H]4-MA binding assay, rat liver microsomes (tea catechins); conditions: read-out: % Inhibition of [^3 H]4-MA binding
T3 sequence (P24008 1-259): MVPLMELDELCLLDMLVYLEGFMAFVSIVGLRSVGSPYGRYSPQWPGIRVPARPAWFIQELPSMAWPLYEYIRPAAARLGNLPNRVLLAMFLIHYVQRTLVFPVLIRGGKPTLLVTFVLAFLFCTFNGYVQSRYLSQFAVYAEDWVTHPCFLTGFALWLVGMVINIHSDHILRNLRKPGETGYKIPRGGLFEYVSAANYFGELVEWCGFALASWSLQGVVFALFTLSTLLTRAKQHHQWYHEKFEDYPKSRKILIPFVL
Experimental: Microsomes were prepared as described previously (Liang and Liao, 1992) from the liver of adult Sprague-Dawley female rats or Rat-1A cells expressing a specific type of human 5α-reductase. Each study was carried out in duplicate or triplicate which were usually within 10% of each other. Several studies were preformed to assure that the results shown are representative. The data presented was based on the rate of reaction.
as §4

[8] = test system: 5α-reductase; conditions: cited from earlier work
[9] = test system: forehead sebum production; assay: Forehead sebum production (L/R ratio), human male; assay type: in vivo
Experimental: A volunteer was used to test and analyze sebum production from the forehead region. The forehead was washed thoroughly by soap twice and cleaned by 70% isopropyl alcohol twice. Sebum production was measured 30 to 60 minutes later by a sebum meter (Courage/Khazaka Electronic GmbH, Germany). The sebum meter tape probe (7 mm×8 mm) covered 56 mm^2 area in each measurement. Ten measurements were made within the 4 cm square area (16 cm^2) located at the middle of the left or right side forehead between the eyebrow and the hair line.
The sebum meter detected the difference in the transparency of the tape before and after the tape was placed on the forehead for 30 seconds and expressed the difference in an arbitrary number (S-value) between 0 to 300 (or higher). S-values of sebum accumulated on the foreheads of men are usually 200 to 300.

[10] = test system: ventral prostate and preputial organ; conditions: 5 mg ip daily, 14 days
Description: Male Sprague-Dawley rats, 60±5 g body weight, were used. Each group had 6 rats, and all were castrated.

[11] = test system: 5α-reductase; assay: Catechin gallates in rat liver microsomes or cells expressing type 1 or type 2 5α-reductase; assay type: biochemical; conditions: 40 μM

Chain of Soybean lipoxygenase (P08170 whole entry): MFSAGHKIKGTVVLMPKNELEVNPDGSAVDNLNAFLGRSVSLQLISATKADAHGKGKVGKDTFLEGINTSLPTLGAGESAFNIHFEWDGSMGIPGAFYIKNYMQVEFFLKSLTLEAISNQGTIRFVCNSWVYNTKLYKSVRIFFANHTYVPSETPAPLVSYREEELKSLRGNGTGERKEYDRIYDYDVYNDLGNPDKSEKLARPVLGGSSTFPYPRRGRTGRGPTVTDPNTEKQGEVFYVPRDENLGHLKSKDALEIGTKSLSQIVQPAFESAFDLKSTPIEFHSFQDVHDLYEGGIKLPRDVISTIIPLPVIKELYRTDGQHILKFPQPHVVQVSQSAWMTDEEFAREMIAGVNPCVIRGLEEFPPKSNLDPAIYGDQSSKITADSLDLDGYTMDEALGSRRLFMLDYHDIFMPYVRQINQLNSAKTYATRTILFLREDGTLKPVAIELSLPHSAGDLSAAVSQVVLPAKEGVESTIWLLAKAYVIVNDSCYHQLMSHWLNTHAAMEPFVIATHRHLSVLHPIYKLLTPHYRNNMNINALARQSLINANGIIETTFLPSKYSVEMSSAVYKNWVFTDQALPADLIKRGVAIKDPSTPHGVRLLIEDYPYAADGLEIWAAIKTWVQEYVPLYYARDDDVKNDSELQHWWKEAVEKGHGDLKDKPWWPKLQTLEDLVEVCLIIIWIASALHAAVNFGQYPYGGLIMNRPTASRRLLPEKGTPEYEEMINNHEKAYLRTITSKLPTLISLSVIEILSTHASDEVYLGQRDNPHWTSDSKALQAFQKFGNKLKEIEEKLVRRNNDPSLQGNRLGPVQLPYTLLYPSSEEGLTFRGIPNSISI

## Oc1cc(O)c2c(c1)O[C@H](c1cc(O)c(O)c(O)c1)[C@H](O)C2 [EGC, (-)Epigallocatechin]
[1]
  activity on type 2 isozyme: not active
  inhibition at 1 µM: < 10%
  inhibition at 3 µM: < 10%
  inhibition at 10 µM: < 10%
  inhibition at 30 µM: < 10%
  inhibition at 100 µM: < 10%
[2]
  effect on the body weight: No significant effect
[3]
  inhibition at 1 µM: < 10%
  inhibition at 3 µM: < 10%
  inhibition at 10 µM: < 10%
  inhibition at 30 µM: < 10%
  inhibition at 100 µM: 23%
[4]
  inhibition at 1 µM: < 10%
  inhibition at 3 µM: < 10%
  inhibition at 10 µM: < 10%
  inhibition at 30 µM: 13%
  inhibition at 100 µM: 14%
[5]
  IC50: 21 µM
[6]
  activity on type 1 isozyme: not active
  inhibition at 1 µM: < 10%
  inhibition at 3 µM: < 10%
  inhibition at 10 µM: < 10%
  inhibition at 30 µM: < 10%
[7]
  inhibition at 5 µM: < 10%
  inhibition at 10 µM: < 10%
  inhibition at 20 µM: < 10%
  inhibition at 40 µM: < 10%
  inhibition at 200 µM: < 10%

## Cc1c(O[C@@H](C)c2ccc(CC(C)C)cc2)ccc(C(=O)Nc2ccccc2OCCCC(=O)O)c1C [ONO-3805]
[8]
  5α-reductase inhibition: 5α-reductase inhibitory activity

## Oc1cc(O)c2c(c1)O[C@H](c1ccc(O)c(O)c1)[C@H](O)C2 [EC, (-)Epicatechin]
[1]; Table 10, 1 μM
  inhibition at 1 µM: < 10%
[1]; Table 10, 3 μM
  inhibition at 3 µM: < 10%
[1]; Table 10, 10 μM
  inhibition at 10 µM: < 10%
[1]; Table 10, 30 μM
  inhibition at 30 µM: < 10%
[1]; Table 10, 100 μM
  inhibition at 100 µM: < 10%
[1]
  activity on type 2 isozyme: not active
[3]; Table 9, 1 μM
  inhibition at 1 µM: < 10%
[3]; Table 9, 3 μM
  inhibition at 3 µM: 13%
[3]; Table 9, 10 μM
  inhibition at 10 µM: < 10%
[3]; Table 9, 30 μM
  inhibition at 30 µM: < 10%
[3]; Table 9, 100 μM
  inhibition at 100 µM: 18%
[9]; 20 mg twice a day, 6 days
  L/R sebum ratio at end of treatment: 1.02±0.1
[9]; 10 days after stop
  L/R sebum ratio recovered after treatment stopped: 1.21±0.01
[10]
  effect on body weight increase: not EC or γ-LA
  effect on ventral prostate and preputial organ weights: not EC
[11]
  inhibition: less than 25%
[4]; Table 9, 1 μM
  inhibition at 1 µM: < 10%
[4]; Table 9, 3 μM
  inhibition at 3 µM: < 10%
[4]; Table 9, 10 μM
  inhibition at 10 µM: < 10%
[4]; Table 9, 30 μM
  inhibition at 30 µM: < 10%
[4]; Table 9, 100 μM
  inhibition at 100 µM: < 10%
[6]; Table 10, 1 μM
  inhibition at 1 µM: < 10%
[6]; Table 10, 3 μM
  inhibition at 3 µM: 13%
[6]; Table 10, 10 μM
  inhibition at 10 µM: < 10%
[6]; Table 10, 30 μM
  inhibition at 30 µM: < 10%
[6]
  activity on type 1 isozyme: not active
[7]; Table 8, 5 μM
  inhibition at 5 µM: < 10%
[7]; Table 8, 10 μM
  inhibition at 10 µM: < 10%
[7]; Table 8, 20 μM
  inhibition at 20 µM: < 10%
[7]; Table 8, 40 μM
  inhibition at 40 µM: < 10%
[7]; Table 8, 200 μM
  inhibition at 200 µM: < 10%

## C[C@]12CC[C@H]3[C@@H](CCC4C(=[N+]=[N-])C(=O)CC[C@@]43C)[C@@H]1CC[C@@H]2CCCO (some centres unmarked) [4-diazo-21-hydroxymethyl-pregnane-3-one]
[8]
  5α-reductase inhibition: shown to inhibit 5α-reductase

## C[C@]12CC[C@H]3[C@@H](CCC4=CC(=O)CC[C@@]43C)[C@@H]1CC[C@@H]2C(=O)O [4-androstane-3-one-17β-carboxylic acid]
[8]
  5α-reductase inhibition: shown to inhibit 5α-reductase
